# Patent US4985360A (priority 1987, dated 1991)
# System: bilirubin oxidase
# Assay: Substrate specificity by oxygen consumption rate (electrode oxygen meter)
# Assay type: biochemical, Penicillium janthinellum
# Conditions: 0.1 mM substrate, 0.1 mM HgCl2 added
# Procedure: The intrinsic substrate specificity for various substrates was estimated based upon the oxygen consumption rate using an electrode oxygen meter. The measurements were effected under an addition of HgCl2 to the substrate solution up to a concentration of 0.1 mM. For the measurements, 0.1 mM solution of the substrate with addition of 0.1 ml of the enzyme solution as employed in the determination of the enzyme activity was used. […] Thus, it was confirmed that the bilirubin oxidase according to the present invention has a very high specificity to bilirubin.
row,Compound,Relative Activity (substrate specificity) [%]
1,Chlorophyll,0
2,Chlorophyllin,0
3,Cc1c(N)c(=O)n(-c2ccccc2)n1C [4-Aminoantipyrin],0
4,CC1=C(CCC(=O)O)c2cc3[nH]c(cc4nc(cc5[nH]c(cc1n2)c(C)c5C(C)O)C(C)=C4C(C)O)c(C)c3CCC(=O)O (stereo not shown) [Hematoporphyrin],0
5,Hemin,0
6,Oc1ccccc1 [Phenol],0
7,Hemoglobin,0
8,C=CC1=C(C)/C(=C/c2[nH]c(Cc3[nH]c(/C=C4\NC(=O)C(C)=C4C=C)c(C)c3CCC(=O)O)c(CCC(=O)O)c2C)NC1=O [Bilirubin],100
9,C=CC1=C(C)/C(=C/C2=NC(=C\c3[nH]c(/C=C4\NC(=O)C(C)=C4C=C)c(C)c3CCC(=O)O)/C(CCC(=O)O)=C2C)NC1=O [Biliverdin],0
10,Oc1ccc(O)cc1 [Hydroquinone],0
11,Oc1cccc(O)c1O [Pyrogallol],0
12,Oc1ccccc1O [Catechol],0

# System: bilirubin oxidase
# Assay: not given
# Assay type: biochemical, Penicillium janthinellum
# Conditions: additive (metal ion, EDTA) 1 mM; activity without addition = 100; 10 min
row,Compound,Relative Acty. (relative enzyme activity with additive) [%]
1,[Cl][Cu][Cl] [CuCL2],0
2,[Ca+2].[Cl-].[Cl-] [CaCl2],31
3,[Cl][Mn][Cl] [MnCl2],10
4,[Cl][Ni][Cl] [NiCl2],43
5,[N-]=[N+]=[N-].[Na+] [NaN3],106
6,[Ba+2].[Cl-].[Cl-] [BaCl2],49
7,[Cl-].[Cl-].[Co+2] [CoCl2],0
8,[Cl-].[Cl-].[Mg+2] [MgCl2],96
9,Cl.N [NH4 Cl],108
10,[Cl-].[Cl-].[Zn+2] [ZnCl2],60
11,[Cl][Fe]([Cl])[Cl] [FeCl3],113
12,[Cl-].[Cs+] [CsCl],139
13,[Cl][Pb][Cl] [PbCl2],377
14,[Cl][Al]([Cl])[Cl] [AlCl3],88
15,[Cl-].[K+] [KCl],106
16,Triazole,105

# Same assay, conditions: bilirubin oxidase, 10 min
row,Compound,Relative Acty. (relative enzyme activity with additive) [%]
1,"CCCCCCCCCCCCCCCC[N+](C)(C)C.[Cl-] [CTMC, Cetyl trimethylammonium chloride]",316
2,"CCCCCCCCCCCCCCCC[N+](C)(C)C.[Br-] [CTMB, Cetyl trimethylammonium bromide]",277

# Same assay, conditions: bilirubin oxidase, 10 min, 1000 µM
row,Compound,Relative Acty. (relative enzyme activity with additive) [%]
1,NO [Hydroxylamine],108
2,[Cl-].[Li+] [LiCl],112
3,O=C(O)CN(CCN(CC(=O)O)CC(=O)O)CC(=O)O [EDTA],102
4,[Cl-].[Na+] [NaCl],106

# Same assay, conditions: metal ion 1 mM or surfactant 0.05%
row,Compound,Effect of additive on enzyme activity (in words)
1,[Cl][Cu][Cl] [CuCL2],inhibited
2,"CCCCCCCCCCCCCCCC[N+](C)(C)C.[Cl-] [CTMC, Cetyl trimethylammonium chloride]",accelerated considerably
3,[Cl][Hg][Cl] [HgCL2],accelerated considerably
4,[Cl-].[Cl-].[Co+2] [CoCl2],inhibited
5,[Cl][Pb][Cl] [PbCl2],accelerated considerably

# System: bilirubin oxidase
# Assay: Km value determination
# Assay type: biochemical, Penicillium janthinellum
# Conditions: 0.1 ml enzyme solution, 2-20 mg bilirubin substrate solutions
row,Compound,Km [µM]
1,C=CC1=C(C)/C(=C/c2[nH]c(Cc3[nH]c(/C=C4\NC(=O)C(C)=C4C=C)c(C)c3CCC(=O)O)c(CCC(=O)O)c2C)NC1=O [Bilirubin],110
